# Assays:
# Experiment in all cases: relative viability (nuclei count vs DMSO), 5 days (fraction); higher = more cells survive
# [1] = compound: C1=CC=C(C(=C1)C2=CC=C(C=C2)C3=CSC4=C3C(=C(C(=O)N4)C#N)O)O
# Procedure, shortened: (§1)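 Cells of lung cancer lines were placed in 1536-well plates and kept overnight at 37 °C. Pinning then delivered five library-drug doses (not always all listed), spaced by √10, onto plates anchored with vehicle, and the cells were left 5 days without changing medium. One step fixed, permeabilised and stained them with Hoechst, and MetaXpress counted nuclei in 4× images. Viability, as a median over plates, is treated-well nuclei divided by vehicle-well nuclei, with acceptance only at control CV below 25% and at least one doubling.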
# Ricolinostat = compound: O=C(CCCCCCNC(=O)c1cnc(N(c2ccccc2)c2ccccc2)nc1)NO [Ricolinostat]
# Procedure, shortened: as §1
# TGX 221 = compound: CC1=CN2C(=O)C=C(N=C2C(=C1)C(C)NC3=CC=CC=C3)N4CCOCC4 [TGX 221]
# Procedure, shortened: as §1
# Ricolinostat + Foretinib = compound: O=C(CCCCCCNC(=O)c1cnc(N(c2ccccc2)c2ccccc2)nc1)NO [Ricolinostat] + COc1cc2c(Oc3ccc(NC(=O)C4(C(=O)Nc5ccc(F)cc5)CC4)cc3F)ccnc2cc1OCCCN1CCOCC1 [Foretinib] (partner 0.25 µM)
# Procedure, shortened: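 Lung cancer cell lines were seeded in 1536-well plates and dosed by pin tool the next day, with either a single drug or a fixed anchor-drug dose combined with five library-drug doses (not always all listed) spaced in √10 steps. Five days later, one step fixed the cells and stained their nuclei (final 0.05% Triton X-100, 1% formaldehyde, 1 ug/ml Hoechst), and nuclei were counted on 4× images. Relative viability is the nuclei count in treated wells divided by the count in vehicle wells, and each value is the median of duplicate plates.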
Cell Line,relative viability ([1]; 0.08 µM),relative viability ([1]; 0.253 µM),relative viability ([1]; 0.8 µM),relative viability ([1]; 2.53 µM),relative viability ([1]; 8 µM),relative viability (Ricolinostat; 0.08 µM),relative viability (Ricolinostat; 0.253 µM),relative viability (Ricolinostat; 0.8 µM),relative viability (Ricolinostat; 2.53 µM),relative viability (TGX 221; 0.08 µM),relative viability (TGX 221; 0.253 µM),relative viability (TGX 221; 0.8 µM),relative viability (TGX 221; 2.53 µM),relative viability (TGX 221; 8 µM),relative viability (Ricolinostat + Foretinib; first compound 0.253 µM),relative viability (Ricolinostat + Foretinib; first compound 0.8 µM),relative viability (Ricolinostat + Foretinib; first compound 2.53 µM),relative viability (Ricolinostat + Foretinib; first compound 0.08 µM)
A-427,0.913,1.02,1.05,1.04,1,0.714,1.01,0.908,0.849,0.949,0.91,0.971,0.893,1,1.17,0.925,1.14,–
NCI-H1975,0.892,0.949,0.932,0.887,0.772,0.928,0.895,0.803,0.872,0.911,0.866,0.998,0.844,0.785,0.975,0.822,0.917,1.04
HCC-827,1.03,1.05,1.08,1.07,1.11,0.946,1.02,1.01,0.991,0.982,1.03,1.07,1.04,0.983,1.06,1.04,0.964,0.998
UMC-11,0.793,0.892,1.07,0.921,0.813,0.889,0.945,0.866,0.464,0.957,0.91,1,0.976,1.08,1.07,0.864,0.504,1.13
NCI-H3122,0.974,1.03,1.03,1.08,0.843,0.94,1.01,0.992,1.07,1,0.985,1.02,0.969,1.01,0.959,1.08,1.13,0.98
LXF-289,0.936,1.02,1,1.06,0.969,0.994,0.972,1,0.968,1.03,0.98,1.03,0.984,1.04,0.895,0.947,0.967,0.987
NCI-H647,0.825,1,0.903,0.892,0.707,0.745,0.903,0.867,0.712,0.856,0.809,0.889,0.738,0.621,1,1.01,1.02,1
COR-L23,1.13,1.07,1.1,1.13,0.704,0.942,0.895,0.844,0.707,1.01,1,0.97,1.02,0.989,0.965,0.87,0.653,0.973
BEN,0.883,0.951,0.966,0.999,0.811,0.743,0.966,0.754,0.694,0.914,0.856,0.918,0.899,0.937,0.598,0.483,0.481,0.657
LC-2-ad,0.824,1.05,0.898,1.04,0.906,0.866,0.964,0.946,0.683,0.962,1.01,1.01,1.02,0.92,0.874,0.886,0.761,0.747
NCI-H650,0.85,1.04,0.835,1.01,0.877,0.769,0.969,0.874,0.696,0.873,0.964,0.853,0.867,0.889,0.997,0.872,0.8,0.957
NCI-H1563,0.959,0.971,0.976,0.955,0.989,0.894,1.02,0.837,0.864,0.947,0.915,0.831,0.866,0.748,0.874,0.844,0.793,0.89
NCI-H1793,0.786,1.17,0.9,0.834,0.945,–,0.924,0.905,0.898,0.858,0.628,0.748,0.574,0.668,0.737,0.741,0.876,–
HCC-78,0.85,1.23,1.15,0.966,0.832,–,1.03,0.8,0.637,0.769,0.856,0.785,0.722,0.76,0.526,0.553,0.427,–
LCLC-97TM1,0.895,1.34,1.02,1.08,1.03,0.809,1.06,0.997,0.855,0.97,0.76,1.02,0.863,0.924,0.89,1,0.933,0.953
NCI-H2009,0.971,1.01,0.987,1.01,0.884,0.861,0.929,0.905,0.75,0.967,0.987,1.01,0.999,0.868,1.19,1.2,1.05,1.16
H3255,0.995,1.09,0.882,1.01,0.858,0.809,0.911,0.838,0.783,0.946,0.917,0.93,0.872,1.01,0.962,0.685,0.589,0.626
EPLC-272H,0.688,0.773,0.926,1,0.788,0.673,0.942,0.719,0.577,0.911,0.837,1.02,0.727,0.978,0.704,0.442,0.354,0.632
NCI-H1734,0.833,0.992,0.971,1.01,0.753,0.81,1.03,0.935,0.894,0.91,0.892,1,0.934,0.9,0.85,0.915,0.926,0.728

Cell Line,relative viability ([1]; 0.08 µM),relative viability ([1]; 0.253 µM),relative viability ([1]; 0.8 µM),relative viability ([1]; 2.53 µM),relative viability ([1]; 8 µM),relative viability (Ricolinostat; 0.08 µM),relative viability (Ricolinostat; 0.253 µM),relative viability (Ricolinostat; 0.8 µM),relative viability (Ricolinostat; 2.53 µM),relative viability (TGX 221; 0.08 µM),relative viability (TGX 221; 0.253 µM),relative viability (TGX 221; 0.8 µM),relative viability (TGX 221; 2.53 µM),relative viability (TGX 221; 8 µM),relative viability (Ricolinostat + Foretinib; first compound 0.253 µM),relative viability (Ricolinostat + Foretinib; first compound 0.8 µM),relative viability (Ricolinostat + Foretinib; first compound 2.53 µM),relative viability (Ricolinostat + Foretinib; first compound 0.08 µM)
NCI-H2087,1.02,1.21,1.08,1.05,0.637,0.912,1.02,0.974,0.699,1.19,1.15,1.12,1,0.988,1.09,1.07,1.05,–
NCI-H522,0.889,0.962,1.13,0.966,0.966,0.997,0.996,0.928,0.915,0.909,0.795,1.17,0.927,1.01,–,–,–,–
NCI-H1666,1.02,1.3,1.03,0.998,0.873,0.963,0.948,0.986,0.904,1.01,0.955,0.946,0.97,0.933,1.01,1.02,0.914,0.967
NCI-H1915,0.967,1.06,0.892,1.05,0.869,0.899,0.968,0.976,0.862,0.937,0.985,0.993,0.871,0.994,1.03,1.07,1.03,1.07
RERF-LC-KJ,1.07,1.07,0.987,1.01,0.8,0.955,1.02,0.984,0.814,0.895,0.933,0.964,0.917,0.938,0.795,0.88,0.802,0.842
NCI-H1623,1.04,1.1,0.927,1.04,0.774,0.933,0.972,1.12,0.889,1.04,0.863,0.949,0.82,0.991,0.9,0.825,0.739,0.795
NCI-H520,0.808,0.901,1.07,1.04,0.777,–,1.05,1.01,0.861,0.809,0.797,0.741,0.692,0.656,0.889,0.89,0.688,–
NCI-H2085,0.905,1.13,0.982,0.964,0.917,–,0.986,0.972,0.88,1.01,0.933,0.863,0.644,0.585,0.867,1.02,0.783,–
LCLC-103H,1.02,0.984,1.05,0.984,1,0.778,0.957,1.04,1.08,0.903,0.983,0.878,0.928,0.959,0.798,0.787,0.748,0.688
NCI-H2342,0.971,1.15,0.926,0.953,0.795,0.768,0.912,0.916,1.05,0.912,0.997,0.947,1.01,0.945,0.975,1.19,1.07,0.88
PC-14,0.844,1.24,0.952,1.09,0.806,0.932,0.927,0.902,0.798,0.913,0.953,0.983,1.02,0.907,0.898,0.892,0.828,0.954
Calu-6,1.01,1.11,1.02,1.08,0.899,0.957,0.994,0.981,0.895,1.03,0.929,1.02,0.923,0.957,0.93,0.848,0.83,0.923
A549,0.908,1.19,1.02,0.977,0.675,0.792,0.945,0.926,0.971,0.954,0.884,0.953,0.927,0.867,0.99,0.928,0.917,0.859
HCC-366,0.829,1.08,1.07,1.01,0.638,0.984,1.03,1.03,0.769,0.942,0.999,1.03,0.957,1.01,0.837,0.975,0.817,0.915
NCI-H2126,0.943,1.09,1,0.963,0.979,0.718,1.01,0.989,0.969,0.945,0.989,0.968,0.837,0.944,1.23,1.16,1,0.864
NCI-H2023,0.996,1.04,1.02,1.01,0.722,0.752,1.01,0.931,0.821,0.901,0.89,0.927,0.889,0.845,0.799,0.786,0.742,–
HCC-44,1.03,1,0.997,0.956,0.991,1.01,0.966,0.962,0.77,0.991,1.03,1.03,0.99,1.03,–,–,–,–
NCI-H1648,0.644,0.68,0.755,0.794,0.739,0.719,1.04,0.745,0.792,0.736,0.656,0.974,0.686,0.873,–,–,–,–
